Laboratory results published in patent publication US9409907B2, “Inhibitor compounds” (Cancer Research Technology Limited, priority 2012, dated 2016).

target: full length MPS1 (Homo sapiens (Human), UniProt P33981); assay: Measurement of inhibition of MPS1 kinase (Caliper EZ reader mobility-shift enzyme assay); format: biochemical; conditions: full length MPS1 12.5 nM or 3 nM, H236 peptide 5 μM, ATP 10 μM, 60 min at room temperature
Experimental: Measurement of Inhibition of MPS1 Kinase
The reaction was carried out for 60 min at room temperature and stopped by the addition of buffer (10 μl) containing 20 mM EDTA, 0.05% (v/v) Brij-35, in 0.1M HEPES-buffered saline (Free acid, Sigma, UK). The plate was read on a Caliper EZ reader II (Caliper Life Sciences).
The % inhibition of the compounds is calculated relative to the means of selected control wells.

Sequence of full length MPS1 (P33981 whole entry): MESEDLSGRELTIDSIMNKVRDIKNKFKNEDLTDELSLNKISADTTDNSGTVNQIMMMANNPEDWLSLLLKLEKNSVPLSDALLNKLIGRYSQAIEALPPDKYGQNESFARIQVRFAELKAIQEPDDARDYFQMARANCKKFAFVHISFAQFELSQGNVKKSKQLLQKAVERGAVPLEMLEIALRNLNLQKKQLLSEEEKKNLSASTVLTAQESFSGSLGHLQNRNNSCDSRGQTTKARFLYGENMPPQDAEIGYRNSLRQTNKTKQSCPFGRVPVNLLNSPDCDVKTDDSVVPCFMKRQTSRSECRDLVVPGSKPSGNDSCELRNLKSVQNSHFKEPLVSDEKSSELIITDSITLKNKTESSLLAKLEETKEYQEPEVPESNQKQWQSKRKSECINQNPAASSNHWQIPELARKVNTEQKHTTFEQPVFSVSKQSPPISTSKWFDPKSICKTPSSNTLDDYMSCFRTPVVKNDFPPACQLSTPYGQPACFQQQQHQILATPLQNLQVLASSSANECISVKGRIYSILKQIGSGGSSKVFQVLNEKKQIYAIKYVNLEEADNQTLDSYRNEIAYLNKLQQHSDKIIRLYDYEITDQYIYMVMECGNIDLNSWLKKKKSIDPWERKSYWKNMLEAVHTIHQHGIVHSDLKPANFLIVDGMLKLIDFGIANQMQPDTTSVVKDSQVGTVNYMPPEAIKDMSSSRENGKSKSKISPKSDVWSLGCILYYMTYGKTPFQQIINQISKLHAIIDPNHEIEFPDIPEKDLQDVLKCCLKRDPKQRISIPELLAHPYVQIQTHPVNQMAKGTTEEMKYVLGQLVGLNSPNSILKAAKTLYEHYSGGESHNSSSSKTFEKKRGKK

| IC50 [nM] | SMILES |
| --- | --- |
| 4 | COc1cc(C(=O)N2CC(OC)C2)ccc1Nc1ncc2ccnc(NCC(C)(C)C)c2n1 [Example 153, (3-methoxy-4-(8-(neopentylamino)pyrido[3,4-d]pyrimidin-2-ylamino)phenyl)(3-methoxyazetidin-1-yl)methanone] |
| 7 | COc1cc(C2CCOCC2)ccc1Nc1ncc2ccnc(NCC3(C)CCOC3)c2n1 (centres unmarked) [Example 154, N^2-(2-methoxy-4-(tetrahydro-2H-pyran-4-yl)phenyl)-N^8-((3-methyltetrahydrofuran-3-yl)methyl)pyrido[3,4-d]pyrimidine-2,8-diamine] |
| 4 | COc1cc(-c2nncn2C)ccc1Nc1ncc2c(C)cnc(NCC3(C)COC3)c2n1 [Example 155, N^2-(2-methoxy-4-(4-methyl-4H-1,2,4-triazol-3-yl)phenyl)-5-methyl-N^8-((3-methyloxetan-3-yl)methyl)pyrido[3,4-d]pyrimidine-2,8-diamine] |
| 5 | COc1cc(-c2nncn2C)ccc1Nc1ncc2c(C)cnc(NCC3(C)CCOC3)c2n1 (centres unmarked) [Example 156, N^2-(2-methoxy-4-(4-methyl-4H-1,2,4-triazol-3-yl)phenyl)-5-methyl-N^8-((3-methyltetrahydrofuran-3-yl)methyl)pyrido[3,4-d]pyrimidine-2,8-diamine] |
| 6 | COc1cc(-c2nncn2C)ccc1Nc1ncc2c(C)cnc(N3CC4(CCOC4)C3)c2n1 [Example 157, N-(2-methoxy-4-(4-methyl-4H-1,2,4-triazol-3-yl)phenyl)-5-methyl-8-(6-oxa-2-azaspiro[3.4]octan-2-yl)pyrido[3,4-d]pyrimidin-2-amine] |
| 3 | COc1cc(-c2cnc(C)n2C)ccc1Nc1ncc2cc(C)nc(NCC(C)(C)OC)c2n1 [Example 158] |
| 5 | CCOc1cc(-c2cnn(C)c2)ccc1Nc1ncc2ccnc(N3CCC4(COC4)C3)c2n1 [Example 159, N-(2-ethoxy-4-(1-methyl-1H-pyrazol-4-yl)phenyl)-8-(2-oxa-6-azaspiro[3.4]octan-6-yl)pyrdio[3,4-d]pyrimidin-2-amine] |
| 3 | CCOc1cc(-c2nncn2C)ccc1Nc1ncc2cc(C)nc(N3CC4(CCOC4)C3)c2n1 [Example 160, N-(2-ethoxy-4-(4-methyl-4H-1,2,4-triazol-3-yl)phenyl)-6-methyl-8-(6-oxa-2-azaspiro[3.4]octan-2-yl)pyrido[3,4-d]pyrimidin-2-amine] |
| 3 | COc1nc(-c2cnc(C)n2C)ccc1Nc1ncc2ccnc(NCC(C)(C)OC)c2n1 [Example 162, N^2-(6-(1,2-Dimethyl-1H-imidazol-5-yl)-2-methoxypyridin-3-yl)-N^8-(2-methoxy-2-methylpropyl)pyrido[3,4-d]pyrimidine-2,8-diamine] |
| 2 | COc1cc(-c2nnnn2C)ccc1Nc1ncc2ccnc(NCC(C)(C)OC)c2n1 [Example 163, N^8-(2-Methoxy-2-methylpropyl)-N^2-(2-methoxy-4-(1-methyl-1H-tetrazol-5-yl)phenyl)pyrido[3,4-d]pyrimidine-2,8-diamine] |
| 3 | COc1nc(-c2cn(C)nc2C)ccc1Nc1ncc2ccnc(NCC(C)(C)OC)c2n1 [Example 164, N^2-(6-(1,3-Dimethyl-1H-pyrazol-4-yl)-2-methoxypyridin-3-yl)-N^8-(2-methoxy-2-methylpropyl)pyrido[3,4-d]pyrimidine-2,8-diamine] |
| 3 | COc1nc(-c2cnn(C)c2C)ccc1Nc1ncc2ccnc(NCC(C)(C)OC)c2n1 [Example 165, N^2-(6-(1,5-dimethyl-1H-pyrazol-4-yl)-2-methoxypyridin-3-yl)-N^8-(2-methoxy-2-methylpropyl)pyrido[3,4-d]pyrimidine-2,8-diamine] |
| 3 | COc1nc(-c2cnnn2C)ccc1Nc1ncc2ccnc(NCC(C)(C)OC)c2n1 [Example 166, N^8-(2-Methoxy-2-methylpropyl)-N^2-(2-methoxy-6-(1-methyl-1H-1,2,3-triazol-5-yl)pyridin-3-yl)pyrido[3,4-d]pyrimidine-2,8-diamine] |
| 23 | COc1nc(-c2cnn(C)n2)ccc1Nc1ncc2ccnc(NCC(C)(C)OC)c2n1 [Example 167, N^8-(2-Methoxy-2-methylpropyl)-N^2-(2-methoxy-6-(2-methyl-2H-1,2,3-triazol-4-yl)pyridin-3-yl)pyrido[3,4-d]pyrimidine-2,8-diamine] |
| 27 | CCc1cc(-c2cnn(C)c2)ccc1Nc1ncc2ccnc(NCC(C)(C)C)c2n1 [Example 168, N2-(2-ethyl-4-(1-methyl-1H-pyrazol-4-yl)phenyl)-N8-neopentylpyrido[3,4-d]pyrimidine-2,8-diamine] |
| 48 | Cn1cc(-c2ccc(Nc3ncc4ccnc(NCC(C)(C)C)c4n3)c(OC(F)(F)F)c2)cn1 [Example 169, N2-(4-(1-methyl-1H-pyrazol-4-yl)-2-(trifluoromethoxy)phenyl)-N8-neopentylpyrido[3,4-d]pyrimidine-2,8-diamine] |
| 4 | COc1cc(N2CCC(N3CCOCC3)CC2)ccc1Nc1ncc2ccnc(NCC(C)(C)C)c2n1 [Example 170, N2-(2-methoxy-4-(4-morpholinopiperidin-1-yl)phenyl)-N8-neopentylpyrido[3,4-d]pyrimidine-2,8-diamine] |
| 65 | COc1cc(N2CCCCC2)ccc1Nc1ncc2ccnc(NCC(C)(C)C)c2n1 [Example 171, N2-(2-methoxy-4-(piperidin-1-yl)phenyl)-N8-neopentylpyrido[3,4-d]pyrimidine-2,8-diamine] |
| 12 | COc1cc(N2CCC(C(=O)N3CCOCC3)CC2)ccc1Nc1ncc2ccnc(NCC(C)(C)C)c2n1 [Example 172, (1-(3-methoxy-4-((8-(neopentylamino)pyrido[3,4-d]pyrimidin-2-yl)amino)phenyl)piperidin-4-yl)(morpholino)methanone] |
| 4 | COc1cc(N2CCN(C)CC2)ccc1Nc1ncc2ccnc(NCC(C)(C)C)c2n1 [Example 173, N2-(2-methoxy-4-(4-methylpiperazin-1-yl)phenyl)-N8-neopentylpyrido[3,4-d]pyrimidine-2,8-diamine] |

| IC50 [nM] | SMILES |
| --- | --- |
| 10 | CC(C)(C)CNc1nccc2cnc(Nc3ccc(N4CCOCC4)cc3Cl)nc12 [Example 174, N2-(2-chloro-4-morpholinophenyl)-N8-neopentylpyrido[3,4-d]pyrimidine-2,8-diamine] |
| 3 | COc1cc(N2CCN(S(C)(=O)=O)CC2)ccc1Nc1ncc2ccnc(NCC(C)(C)C)c2n1 [Example 176, N2-(2-methoxy-4-(4-(methylsulfonyl)piperazin-1-yl)phenyl)-N8-neopentylpyrido[3,4-d]pyrimidine-2,8-diamine] |
| 24 | COc1cc(Cl)ccc1Nc1ncc2ccnc(N3CCC4(COC4)C3)c2n1 [Example 178, N-(4-Chloro-2-methoxyphenyl)-8-(2-oxa-6-azaspiro[3.4]octan-6-yl)pyrido[3,4-d]pyrimidin-2-amine] |
| 3 | COc1cc(-c2nncn2C)ccc1Nc1ncc2cc(C)nc(NCC(C)(C)OC)c2n1 [Example 180] |
| 19.4 | COCCn1c(-c2ccc(Nc3ncc4cc(C)nc(NCC(C)(C)C)c4n3)c(OC)c2)cnc1C [Example 181] |
| 16 | COc1cc(N2CCN(S(C)(=O)=O)CC2)ccc1Nc1ncc2cc(C)nc(NCC(C)(C)C)c2n1 [Example 183] |
| 2 | COc1cc(-c2cnn(C)c2CO)ccc1Nc1ncc2ccnc(NCC(C)(C)OC)c2n1 [Example 184] |
| 1 | COc1cc(-c2cnn(C)c2CO)ccc1Nc1ncc2ccnc(NCC3(C)CCOC3)c2n1 (centres unmarked) [Example 185] |
| 4 | COCCn1c(-c2ccc(Nc3ncc4ccnc(NCC(C)(C)OC)c4n3)c(OC)c2)cnc1C [Example 186] |
| 2 | COCCn1c(-c2ccc(Nc3ncc4ccnc(NCC5(C)CCOC5)c4n3)c(OC)c2)cnc1C (centres unmarked) [Example 187] |
| 2 | CCOc1cc(-c2nncn2C)ccc1Nc1ncc2ccnc(NCC(C)(C)OC)c2n1 [Example 188] |
| 1 | CCOc1cc(-c2nncn2C)ccc1Nc1ncc2ccnc(NCC3(C)CCOC3)c2n1 (centres unmarked) [Example 189] |
| 3 | COc1cc(-c2cn(C)nc2C)ccc1Nc1ncc2ccnc(NCC(C)(C)OC)c2n1 [Example 190] |
| 2 | COc1cc(-c2cn(C)nc2C)ccc1Nc1ncc2ccnc(NCC3(C)CCOC3)c2n1 (centres unmarked) [Example 191] |
| 5 | COc1cc(-c2cn(C)nc2C)ccc1Nc1ncc2cc(C)nc(NCC(C)(C)OC)c2n1 [Example 192] |
| 4 | COc1cc(C(=O)N2CC(OC)C2)ccc1Nc1ncc2ccnc(NCC(C)(C)OC)c2n1 [Example 193] |
| 11 | COc1cc(C(=O)N(C)C)ccc1Nc1ncc2ccnc(NCC(C)(C)OC)c2n1 [Example 194] |
| 8 | COc1cc(C(=O)N2CCN(C)CC2)ccc1Nc1ncc2ccnc(NCC(C)(C)OC)c2n1 [Example 195] |
| 20 | COc1cc(-c2ncnn2C)ccc1Nc1ncc2cc(C)nc(NCC(C)(C)OC)c2n1 [Example 196] |
| 34 | COC(C)(C)CNc1nc(C)cc2cnc(Nc3ccc(-c4cnn(C)c4)cc3OC(F)F)nc12 [Example 197] |

| SMILES | IC50 [nM] |
| --- | --- |
| COc1cc(-c2nncn2C)ccc1Nc1ncc2ccnc(NCC(C)(C)C)c2n1 [Example 175, N2-(2-methoxy-4-(4-methyl-4H-1,2,4-triazol-3-yl)phenyl)-N8-neopentylpyrido[3,4-d]pyrimidine-2,8-diamine] | 2 |
| COc1cc(-c2cnc(C)n2C)ccc1Nc1ncc2cc(C)nc(NCC(C)(C)C)c2n1 [Example 177, N2-(4-(1,2-dimethyl-1H-imidazol-5-yl)-2-methoxyphenyl)-6-methyl-N8-neopentylpyrido[3,4-d]pyrimidine-2,8-diamine] | 5 |
| COc1cc(-c2nncn2C)ccc1Nc1ncc2cc(C)nc(NCC(C)(C)C)c2n1 [Example 179, N2-(2-methoxy-4-(4-methyl-4H-1,2,4-triazol-3-yl)phenyl)-6-methyl-N8-neopentylpyrido[3,4-d]pyrimidine-2,8-diamine] | 2 |
| CCOc1cc(-c2nncn2C)ccc1Nc1ncc2cc(C)nc(NCC(C)(C)C)c2n1 [Example 182] | 3 |
